The values that follow come from US5589513A, “Pharmaceutical composition and process for the preparation thereof” (Chinoin Gyogyszer es Vegyeszeti Termekek Gyara Rt., priority 1991, dated 1996).

The test system of data set [1] is MPP^+ uptake to the striatatal synaptosones. The experiment in a line: MPP+ uptake to striatal synaptosomes. It counts as biochemical. The note with it: for IC50: striatal synaptosomes; for uptake inhibitory potency: potential metabolites. As for the experimental part:
(§1) 3.) The potential metabolites of deprenyl and p-fluoro-deprenyl, (methylamphetamine, amphetamine and p-fluoro-methylamphetamine, p-fluoro-amphetamine, respectively) have a significant uptake inhibitory potency; they can prevent in vivo the MPTP neurotoxicity without the development of a high degree of MAO inhibition. The tests were carried out according to the method of Heikilla [Nature, 311, 467-469 (1984)].

Data set [2] has as its system MPTP induced neuronal damage. The settings on record: literature; cited from earlier work.
For the next data set, the system named is MPTP neurotoxicity. Put plainly: MPTP neurotoxicity (dopamine, DOPAC, HVA levels). It counts as in vivo. Also on record: DOPAC: unit not given beside the values. The settings on record: for prevention of MPTP neurotoxicity in vivo: without a high degree of MAO inhibition. As for the experimental part:
as §1

Data set [3] concerns DSP-4 neurotoxicity. The experiment in a line: Interaction of deprenyl and p-fluoro-deprenyl metabolites with DSP-4 neurotoxicity. It is filed as in vivo, rats. The settings on record: for prevention of DSP-4 induced neurotoxicity in vivo: dose of 1-5 mg/kg i.p., without development of MAO inhibition. As for the experimental part:
The tests were carried out according to the method of Finnegan [Finnegan et al., Eur. J. Pharmacol., 184, 119-126, (1990)].

The test system of a further data set is DSP-4 induced toxicity. The settings on record: literature; cited from earlier work.
Data set [4] has as its system DSP-4 neurotoxicity. The experiment in a line: Inhibition of DSP-4 neurotoxicity after oral deprenyl formulations (hippocampus noradrenaline, survival). The settings on record: 3 mg/kg p.o.; 50 mg/kg DSP-4 ip.; rats. It is filed as in vivo. As for the experimental part: The inhibition of DSP-4 neurotoxicity was measured in rats. For treating rats the schedule of Finnegan was followed [Finnegan et al., Eur. J. Pharmacol., 184, 119-126, (1990)].
Wistar male rats, weighing 170-200 g were used. Animals were housed six to a cage under constant temperature (22° C.), in a room illuminated 12 h per day. Food and water were freely available. Rats were pretreated orally with 3 mg/kg of the combination of example 3 (1 mg/kg "fast" (F)+2 mg/kg "slow" (S)), 1, 2, 4 and 8 hours before DSP-4 treatment (50 mg/kg; intraperitoneally).
Each hippocampus of the rats […].

The subject of data set [5] is MAO-A. Put plainly: Inhibition of MAO activity in liver, 14C-5-HT substrate. The note with it: pig; times as for brain; where three numbers are printed, apparently single animals. It counts as in vivo, domestic pig. The procedure:
(§2) MAO activity was measured radiometrically according to the methods of Wurtman and Axelrod [Biochem. Pharmacol. 12. 1414-19; (1963)] with a slight modification [K. Magyar in: Monoamine Oxidases and their Selective Inhibition, Ed.: K. Magyar, Pergamon Press, Akademiai Kiado, Budapest, 11-21; (1980)].

The test system of data set [6] is MAO-A. Put plainly: Inhibition of MAO activity in brain nucleus free homogenates, 14C-5-HT substrate. It is filed as in vivo, domestic pig. The settings on record: pig; p. os 96 h; UG-111 48 h (patch 24 h); UG-167 72 h (patch 48 h); UG-191 96 h (patch 72 h). The procedure: as §2
Data set [7] deals with DA uptake, rat brain synaptosomas, STRIATUM
Put plainly: In vitro DA uptake inhibition on brain synaptosomes (striatum). It is filed as biochemical.

Data set [8] deals with NA uptake, rat brain synaptosomas, HYPOTHALAMUS
The experiment in a line: In vitro NA uptake inhibition on brain synaptosomes (hypothalamus). It is filed as biochemical.

Data set [9] in a line: Distribution of labelled deprenyl and p-fluoro-deprenyl in brain regions and plasma after oral administration. It is filed as in vivo. The note with it: rats, deprenyl […], p-fluoro-deprenyl 10 mg/kg. From the text:
The simultaneous presence and the equal quantities of the two labels indicate the unchanged molecule (the data relate to the molar concentrations calculated on the basis of the two labels).

Where [10] appears, read: 1. treatment MPTP, 2. treatment the substance (MPTP: phys.s.).
Where [11] appears, read: 1. treatment MPTP, 2. treatment the substance (MPTP: phys.s.), % of physiological salt control.
The mark [12] stands for this setting: 1. treatment MPTP, 2. treatment the substance (MPTP: phys.s.), time between treatments 30.
Setting [13] is: pretreatment 10 mg/kg i.p., DSP-4 50.
Setting [14] is: read-out: In vitro uptake inhibition DA STRIATUM
Setting [15] is: pretreatment 1 mg/kg i.p., DSP-4 50.
The mark [16] stands for this setting: pretreatment 5 mg/kg i.p., DSP-4 30.
[17] abbreviates: 1. treatment the substance, 2. treatment MPTP.
Where [18] appears, read: 1. treatment the substance, 2. treatment MPTP, % of physiological salt control.

Where a name gives a salt, the structure may show the parent alone. Read-outs that look alike come from different tables or passages of the source.

In data set [1], `CC(N)Cc1ccc(F)cc1` (single isomer, unassigned; (-)) [(-)-p-F-amphetamine] registered an IC50 of 0.72 µM.
For the compound `OC1(c2ccc(Cl)cc2)c2ccccc2C2=NCCN21` (stereo not drawn) [Mazindol], the “effect on MPTP induced neuronal damage” value in [2] is listed as “can be retarded”. The same compound gave a DOPAC with MPTP neurotoxicity (setting [10]) of 1.1 ± 0.08. For the same compound, in the data set on MPTP neurotoxicity (setting [11]), the DOPAC % is 122% and the Dopamine % was 98%. Also, the Dopamine in the data set with MPTP neurotoxicity (setting [12]) was determined as 14.0 ± 0.8.
On to `CC(N)Cc1ccc(F)cc1` (stereo not drawn) [p-fluoro-amphetamine], for which the “prevention of DSP-4 induced neurotoxicity in vivo” value in the data set with DSP-4 neurotoxicity [3] is listed as “able to prevent”. In addition, the “prevention of MPTP neurotoxicity in vivo” value in the data set with MPTP neurotoxicity is listed as “can prevent”. The uptake inhibitory potency entry in [1] was “significant”.
Consider `CNCCCN1c2ccccc2CCc2ccccc21` [desipramine, 10,11-Dihydro-N-methyl-5-H-dibenz(6,7)azepine-5-propanamine], for which, in the data set on DSP-4 induced toxicity, the “effect on DSP-4 induced toxicity / NA depletion” value is on record as “inhibit the NA-depleting effect of DSP-4”.
For `C#CCN(C)[C@H](C)Cc1ccccc1` [(-)-deprenyl, (-)N-(-1-phenyl-isopropyl)-N-methyl-propinylamine-hydrochloride], the “effect on MPTP induced neuronal damage” value in [2] is given as “can be prevented”. For the same compound, the “prevention of the neurotoxicity of DSP-4” value with DSP-4 neurotoxicity [4] is listed as “can prevent”. Further, the “inhibition of MAO activity (%) liver 14C-5-HT” value in the data set on MAO-A [5] was 10.45 ± 6.4%. Moreover, the “inhibition of MAO activity (%) brain 14C-5-HT” value with MAO-A [6] is listed as 20.14 ± 6.0%.
In the case of `CNC(C)Cc1ccc(F)cc1` (single isomer, unassigned; (-)) [(-)-p-F-metamphetamine], the IC50 in data set [7] (read-out: In vitro uptake inhibition DA STRIATUM, listed as (-)-p-FLUORO-MA) worked out at 300 µM; in data set [8] (listed as (-)-p-FLUORO-MA), 7.5 µM; in data set [1], 1.3 µM. In the data set on DSP-4 neurotoxicity [3] (setting [13]), the Survival % amounted to 0%.
For the compound `C#CCN(C)C(C)Cc1ccc(F)cc1` (single isomer, unassigned; (-)) [(-)-p-FLUORO-D], the IC50 turned out to be 29 µM in [7] (setting [14]) and 13 µM in [8].
With `CN[C@H](C)Cc1ccccc1` [(-)-metamphetamine], the “Na content of hippocampus in % ± S.D.” value with DSP-4 neurotoxicity [3] (setting [15]) was 61 ± 3.5%; in the data set with DSP-4 neurotoxicity [3] (setting [16]) it was 116 ± 2.1%. The Survival % with DSP-4 neurotoxicity [3] (setting [15]) amounted to 100%; in the data set with DSP-4 neurotoxicity [3] (setting [16]), 63%; in the data set with DSP-4 neurotoxicity [3] (setting [13]) it was 0%.
Take `C#CCN(C)Cc1ccccc1` [Pargyline]: the DOPAC in the data set with MPTP neurotoxicity (setting [10]) is on record as 0.5 ± 0.04; with MPTP neurotoxicity (setting [17]) it was 1.0 ± 0.06. Moreover, the “HVA (homovanillic acid)” value with MPTP neurotoxicity (setting [10]) was 0.9 ± 0.09; with MPTP neurotoxicity (setting [11]) it was 64%; with MPTP neurotoxicity (setting [17]), 1.4 ± 0.06; with MPTP neurotoxicity (setting [18]) it was 100%. Moreover, the DOPAC % with MPTP neurotoxicity (setting [11]) was determined as 55%; in the data set on MPTP neurotoxicity (setting [18]), 111%. Moreover, the Dopamine % in the data set on MPTP neurotoxicity (setting [11]) stood at 47%; with MPTP neurotoxicity (setting [18]), 91%. For the same compound, the Dopamine is 7.1 ± 0.6 with MPTP neurotoxicity (setting [12]) and 13.8 ± 0.5 with MPTP neurotoxicity (1. treatment the substance, 2. treatment MPTP (pretreatment)).
In the case of `C#CCN(C)C(C)Cc1ccc(F)cc1` (stereo not drawn) [p-fluoro-deprenyl], the “time in which the unchanged compound was absorbed” value in data set [9] was found to be 15 min.
In the case of `C#CCN(C)[C@@H](C)Cc1ccc(F)cc1` [(+)-p-FLUORO-D], the values for the IC50 in data set [7] (setting [14]) and in data set [8] were 16 µM and 6.1 µM, respectively.
For the compound `CC(N)Cc1ccccc1` (stereo not drawn) [amphetamine], the “prevention of DSP-4 induced neurotoxicity in vivo” value in the data set on DSP-4 neurotoxicity [3] is reported as “able to prevent”. For the same compound, in the data set on MPTP neurotoxicity, the “prevention of MPTP neurotoxicity in vivo” value is recorded as “can prevent”. The uptake inhibitory potency result in data set [1] was “significant”.
In [1], `CC(N)Cc1ccc(F)cc1` (single isomer, unassigned; (+)) [(+)-p-F-amphetamine] returned an IC50 of 0.1 µM.
Take `NC/C(=C/F)CCc1ccc(F)cc1` [MDL 72974A, (E)-4-fluoro-beta-fluoro-ethylene benzene butamine]: the “effect on DSP-4 induced toxicity / NA depletion” value in the data set with DSP-4 induced toxicity is “fails to prevent DSP-4 induced toxicity”.
As to `CN1CC=C(c2ccccc2)CC1` [MPTP, 1-methyl-4-phenyl-1,2,3,6-tetrahydropyridine], in the data set with MPTP neurotoxicity (setting [10]), the DOPAC stood at 0.7 ± 0.04 and the “HVA (homovanillic acid)” value was 1.3 ± 0.07. Besides, in the data set with MPTP neurotoxicity (setting [11]), the DOPAC % stood at 77%, the Dopamine % was found to be 53% and the “HVA (homovanillic acid)” value came out at 79%. In the data set on MPTP neurotoxicity (setting [12]), this compound had a Dopamine of 8.0 ± 0.5.
As to `CNC(C)Cc1ccc(F)cc1` (single isomer, unassigned; (+)) [(+)-p-F-metamphetamine], the IC50 in [7] (read-out: In vitro uptake inhibition DA STRIATUM, listed as (+)-p-FLUORO-MA) was 23 µM; in [8] (listed as (+)-p-FLUORO-MA), 7.7 µM; in data set [1] it was 1.3 µM.
